Laboratory results published in patent US5824676A, “5-HT2 receptor ligands” (Allelix Biopharmaceuticals Inc., priority 1996, dated 1998).

Tests used:
5-HT2 receptor = 5-HT2 receptor (Rattus norvegicus, UniProt P14842); assay: 5-HT2 Receptor Binding Assay (3H-ketanserin displacement)
[1] = biological target: T1, human D4 receptor (D4.2 sub-type) (Homo sapiens, UniProt P21917, DEL265-296); assay: Dopamine D4 Receptor Binding Assay (3H-spiperone displacement); conditions: 3H-spiperone 0.25 nM; cells stably transfected with human D4.2; 90 minutes, room temperature, pH 7.4
T1 construct: expressed in transfected cells; host or cells: HEK 298 [sic] (human embryonic kidney) cells
T1 sequence (P21917 with tags, fused parts or gaps DEL265-296): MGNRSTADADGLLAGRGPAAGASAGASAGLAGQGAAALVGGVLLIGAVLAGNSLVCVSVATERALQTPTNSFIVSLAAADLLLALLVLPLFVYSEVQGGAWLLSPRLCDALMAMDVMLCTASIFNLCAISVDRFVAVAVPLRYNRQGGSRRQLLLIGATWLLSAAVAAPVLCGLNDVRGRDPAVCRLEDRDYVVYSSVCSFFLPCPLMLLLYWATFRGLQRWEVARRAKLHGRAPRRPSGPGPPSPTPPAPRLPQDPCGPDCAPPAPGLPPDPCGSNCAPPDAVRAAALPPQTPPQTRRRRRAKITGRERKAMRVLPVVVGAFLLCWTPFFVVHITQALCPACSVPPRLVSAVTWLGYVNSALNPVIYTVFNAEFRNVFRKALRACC
Procedure: The cells were then centrifuged in a Sorval centrifuge for 10 minutes, 5000 rpm (GS3 rotor) and the pellets quickly frozen in liquid nitrogen and stored at -80° C. until used in binding assay. When used in the assay, cells were thawed on ice for 20 minutes and then 10 mL of incubation buffer (50 mM Tris, 1 mM EDTA, 4 mM MgCl2, 5 mM KCl, 1.5 mM CaCl2, 120 mM NaCl, pH7.4) was added. […] Concentration of receptor protein was determined using the Pierce BCA assay.
(§1) The incubation was started by the addition to 12×75 mm polypropylene tubes 500 μl (50 μg protein) membrane homogenate to a solution of 400 μl incubation buffer, 100 μl ([…].) ^3 H-spiperone (90 Ci/mmol, Amersham, diluted in borosilicate glass vial to) and 500 μl of test compound that was prepared from 1 mM stock dissolved in DMSO and stored at -20° C. in polypropylene cryogenic storage vials until dilution in incubation buffer in borosilicate glass vials.

[2] = biological target: T2, human D2 receptor (short isoform) (Homo sapiens, UniProt P14416); assay: Dopamine D2 Receptor Binding Assay (3H-spiperone displacement); conditions: 3H-spiperone 0.25 nM; GH4C1 (rat pituitary) cells stably transfected with human D2 short; 90 minutes, room temperature, pH 7.4
T2 construct: expressed in transfected cells
T2 sequence (P14416 1-414 isoform P14416-2): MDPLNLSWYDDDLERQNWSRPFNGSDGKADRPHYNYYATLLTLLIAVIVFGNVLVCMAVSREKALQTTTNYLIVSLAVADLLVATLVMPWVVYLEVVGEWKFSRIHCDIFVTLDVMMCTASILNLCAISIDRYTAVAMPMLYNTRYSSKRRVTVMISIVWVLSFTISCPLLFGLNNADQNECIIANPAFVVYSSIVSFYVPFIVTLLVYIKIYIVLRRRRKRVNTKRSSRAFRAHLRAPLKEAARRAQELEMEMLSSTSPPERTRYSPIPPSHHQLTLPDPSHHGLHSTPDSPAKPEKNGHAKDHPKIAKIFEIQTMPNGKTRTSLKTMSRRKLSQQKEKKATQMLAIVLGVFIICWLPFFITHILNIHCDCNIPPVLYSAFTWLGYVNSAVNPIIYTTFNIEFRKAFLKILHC
Procedure: GH4 C1 (rat pituitary) cells stably transfected with the human D2 receptor (short isoform) were grown in CO2 independent media in roller bottles (1500 cm^2) for 10 days. 100 μM ZnSO4 was added to the cells (the D2 promoter being zinc inducible). After 16 hours, fresh media was added to allow the cells to recover for 24 hours. The cells were harvested using versene and then centrifuged in a Sorval centrifuge for 10 minutes, at 5000 rpm (GS3 rotor). Pellets were quickly frozen in liquid nitrogen and stored at -80° C. until used in the binding assays. When used in the assay, cells were thawed on ice for 20 minutes.
This assay employed the same procedures as the non-specific binding assay for D4 with the exception that 2 μM (final conc.) of (-) sulpiride (Research Chemicals Inc.) was used in place of dopamine.
as §1

Sequence of 5-HT2 receptor (P14842 whole entry): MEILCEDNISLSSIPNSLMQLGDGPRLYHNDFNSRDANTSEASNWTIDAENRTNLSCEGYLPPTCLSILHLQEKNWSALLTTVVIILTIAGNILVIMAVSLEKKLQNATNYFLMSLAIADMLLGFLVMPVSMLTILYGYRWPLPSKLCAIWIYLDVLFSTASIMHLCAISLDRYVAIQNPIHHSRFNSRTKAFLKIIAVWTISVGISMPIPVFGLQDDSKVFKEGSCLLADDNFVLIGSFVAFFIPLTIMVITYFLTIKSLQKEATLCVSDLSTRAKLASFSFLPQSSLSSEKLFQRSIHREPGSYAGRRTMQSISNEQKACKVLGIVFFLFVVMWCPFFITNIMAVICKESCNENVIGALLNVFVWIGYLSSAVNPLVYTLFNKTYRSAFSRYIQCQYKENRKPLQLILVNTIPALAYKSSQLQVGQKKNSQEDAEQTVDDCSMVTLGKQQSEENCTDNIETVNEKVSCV

Row | Compound | Ki (5-HT2 receptor) [µM] | Ki [1] [nM] | Ki [2] [nM]
1 | CC1CN(C2=Nc3ccccc3Oc3ccccc32)C(C)CN1 (stereo not drawn) [11-(2,5-dimethyl-1-piperazinyl)-dibenz[b,f][1,4]oxazepine] | 0.092 | 4540 | 4890
2 | CC1CN(C2=Nc3ccccc3Oc3ccccc32)CC(C)N1 (stereo not drawn) [11-(3,5-dimethyl-1-piperazinyl)-dibenz[b,f][1,4]oxazepine] | 0.368 | 1100 | 6330
3 | CC1CN(C2=Nc3cc(Cl)ccc3Oc3ccccc32)CC(C)N1 (stereo not drawn) [8-chloro-11-(3,5-dimethyl-1-piperazinyl)-dibenz[b,f][1,4]oxazepine] | 0.0134 | 215 | 2170
4 | CC1CN(C2=Nc3ccccc3Nc3cc(Cl)ccc32)CC(C)N1 (stereo not drawn) [3-chloro-11-(3,5-dimethyl-1-piperazinyl)-5H-dibenz[b,e][1,4]diazepine] | 0.024 | 2750 | 14100
